We go through one substance from PMC3655264, “A Large-Scale Conformational Change Couples Membrane Recruitment to Cargo Binding in the AP2 Clathrin Adaptor Complex” (Cell, 2010).

Holding throughout (experiment): SPR, PtdIns4,5P2-containing liposomes on L1 chip
On the technique in general: SPR reads the build-up and loss of mass on a sensor chip optically.

Assay [1] deals with T1, AP2 core (Rattus norvegicus; Mus musculus; Homo sapiens, UniProt P18484+P63010+P84092).
T1 construct: gene Ap2a2; heterotetrameric 200 kDa core: alpha trunk-GST, His6-beta2 trunk, mu2 with myc tag (MEQKLI) in surface loop at residue 236, untagged sigma2; E. coli; with AP-2 complex subunit sigma
T1 sequence (P62743 whole entry): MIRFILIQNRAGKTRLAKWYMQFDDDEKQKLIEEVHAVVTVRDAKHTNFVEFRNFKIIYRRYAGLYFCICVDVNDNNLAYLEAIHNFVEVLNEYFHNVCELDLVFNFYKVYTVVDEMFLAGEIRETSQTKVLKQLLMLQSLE
T1 sequence (P84092 whole entry): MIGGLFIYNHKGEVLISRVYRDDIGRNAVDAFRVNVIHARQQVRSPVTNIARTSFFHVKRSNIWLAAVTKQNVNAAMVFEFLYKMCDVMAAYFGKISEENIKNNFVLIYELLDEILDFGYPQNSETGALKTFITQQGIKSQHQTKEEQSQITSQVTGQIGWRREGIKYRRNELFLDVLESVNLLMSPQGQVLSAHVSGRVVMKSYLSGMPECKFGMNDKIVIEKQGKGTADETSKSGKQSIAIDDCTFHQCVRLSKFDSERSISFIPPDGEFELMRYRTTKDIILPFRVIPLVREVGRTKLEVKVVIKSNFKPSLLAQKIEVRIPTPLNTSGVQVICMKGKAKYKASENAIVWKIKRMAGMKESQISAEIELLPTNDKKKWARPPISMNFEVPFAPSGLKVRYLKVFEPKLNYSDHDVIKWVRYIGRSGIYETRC
T1 sequence (P63010 1-592): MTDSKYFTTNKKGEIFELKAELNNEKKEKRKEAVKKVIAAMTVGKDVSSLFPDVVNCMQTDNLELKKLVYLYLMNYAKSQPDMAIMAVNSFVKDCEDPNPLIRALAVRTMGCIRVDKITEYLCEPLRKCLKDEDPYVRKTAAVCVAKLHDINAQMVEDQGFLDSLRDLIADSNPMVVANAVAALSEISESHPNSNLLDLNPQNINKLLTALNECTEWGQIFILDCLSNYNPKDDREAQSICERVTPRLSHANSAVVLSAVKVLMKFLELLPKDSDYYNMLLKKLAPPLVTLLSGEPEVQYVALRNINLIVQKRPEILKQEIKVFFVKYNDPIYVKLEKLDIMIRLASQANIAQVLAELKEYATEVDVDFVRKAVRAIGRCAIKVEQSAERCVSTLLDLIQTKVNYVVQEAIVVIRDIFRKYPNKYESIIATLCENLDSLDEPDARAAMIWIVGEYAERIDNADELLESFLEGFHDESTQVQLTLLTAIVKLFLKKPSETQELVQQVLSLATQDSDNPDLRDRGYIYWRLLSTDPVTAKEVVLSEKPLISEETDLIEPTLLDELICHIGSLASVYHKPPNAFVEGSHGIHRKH
T1 sequence (P18484 1-620): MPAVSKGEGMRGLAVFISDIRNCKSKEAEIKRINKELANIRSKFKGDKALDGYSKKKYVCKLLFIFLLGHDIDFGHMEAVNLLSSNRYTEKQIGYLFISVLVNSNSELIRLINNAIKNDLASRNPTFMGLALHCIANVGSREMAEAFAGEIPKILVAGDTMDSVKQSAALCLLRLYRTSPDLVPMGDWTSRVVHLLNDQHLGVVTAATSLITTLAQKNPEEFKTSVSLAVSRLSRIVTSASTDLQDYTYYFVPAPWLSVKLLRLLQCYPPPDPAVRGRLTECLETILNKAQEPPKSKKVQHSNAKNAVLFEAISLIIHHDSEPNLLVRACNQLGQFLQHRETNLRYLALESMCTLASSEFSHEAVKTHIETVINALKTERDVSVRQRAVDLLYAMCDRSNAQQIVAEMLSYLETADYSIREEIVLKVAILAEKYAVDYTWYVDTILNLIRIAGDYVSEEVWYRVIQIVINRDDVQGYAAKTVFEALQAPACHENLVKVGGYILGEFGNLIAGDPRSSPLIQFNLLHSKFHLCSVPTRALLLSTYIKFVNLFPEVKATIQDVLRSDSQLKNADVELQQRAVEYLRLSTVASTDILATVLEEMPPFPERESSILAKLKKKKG
Conditions: apparent, multivalent membrane binding (sites on alpha, beta2, mu2); no cargo peptide; 10 mM Tris pH 8.7, 250 mM NaCl.

The target of assay [2] is T2, AP2 core (Rattus norvegicus; Mus musculus; Homo sapiens, UniProt P18484+P63010+P84092, form not given, species not given).
T2 construct: gene Ap2a2; heterotetrameric 200 kDa core: alpha trunk-GST, His6-beta2 trunk, mu2 with myc tag (MEQKLI) in surface loop at residue 236, untagged sigma2; E. coli; with AP-2 complex subunit sigma
The following applies: apparent, multivalent membrane binding; five lysines of the second basic region (Lys330-Lys373) of C-mu2 to Glu, which five not told. An excerpt: SPR, PtdIns4,5P2-containing liposomes on L1 chip on AP2 core | (5K>E) slightly weakens the binding of AP2 cores to PtdIns4,5P2-containing membranes
Target sequence in this assay (P18484 1-620): as above
Target sequence in this assay (P84092 whole entry): as the sequence (P84092 whole entry) above
Target sequence in this assay (P62743 whole entry, further chain): as the sequence (P62743 whole entry) above
Target sequence in this assay (P63010 1-592): as the sequence (P63010 1-592) above

Assay [3] addresses T2, AP2 core. The following applies: apparent, multivalent membrane binding.
Target sequence in this assay (P62743 whole entry): as the sequence (P62743 whole entry) above
Target sequence in this assay (P18484 1-620): as the sequence (P18484 1-620) above
Target sequence in this assay (P84092 whole entry): as the sequence (P84092 whole entry) above
Target sequence in this assay (P63010 1-592): as the sequence (P63010 1-592) above

As to PtdIns4,5P2, the Kd in assay [1] came to 7 µM; in assay [2], 11 µM; in assay [3], 30 µM.
